Measurements: ChEMBL document CHEMBL4507266, “Data for DCP probe BAY-784” (2021)

Columns and labels:
[1] = target: Phosphodiesterase 3 (Homo sapiens) (UniProt Q14432+Q13370); assay: Inhibition of Phosphodiesterase PDE3 at compound concentration of 10.0 uM in the Eurofins-Panlabs enzyme assay (Eurofins_assay_152000); assay type: protein assay; set-up: substrate with concentration 1.01 uM [3H] cAMP + cAMP, incubation time 20 min, incubation temperature 25 C; conditions: Compound concentration 10.0 uM
[2] = target: Adenosine receptor A3 (Homo sapiens) (UniProt P0DMS8); conditions: Compound concentration 10.0 uM
Caspase-1 (Homo sapiens) = Caspase-1 (Homo sapiens) (UniProt P29466); assay: Inhibition of Peptidase, CASP1 (Caspase 1) at 10 µM in the Eurofins-Panlabs enzyme assay (Eurofins_assay_163000); conditions: Compound concentration 10.0 uM
[3] = target: Estrogen receptor (Homo sapiens) (UniProt P03372); conditions: Compound concentration 10.0 uM
[4] = target: T1, 5-hydroxytryptamine receptor 3A (Homo sapiens) (UniProt P46098); assay: Inhibition of Serotonin (5-Hydroxytryptamine) 5-HT3 at 10 µM in the Eurofins-Panlabs radioligand binding assay (Eurofins_assay_271910); set-up: ligand concentration 0.69 nM; conditions: Compound concentration 10.0 uM
T1 sequence (whole entry): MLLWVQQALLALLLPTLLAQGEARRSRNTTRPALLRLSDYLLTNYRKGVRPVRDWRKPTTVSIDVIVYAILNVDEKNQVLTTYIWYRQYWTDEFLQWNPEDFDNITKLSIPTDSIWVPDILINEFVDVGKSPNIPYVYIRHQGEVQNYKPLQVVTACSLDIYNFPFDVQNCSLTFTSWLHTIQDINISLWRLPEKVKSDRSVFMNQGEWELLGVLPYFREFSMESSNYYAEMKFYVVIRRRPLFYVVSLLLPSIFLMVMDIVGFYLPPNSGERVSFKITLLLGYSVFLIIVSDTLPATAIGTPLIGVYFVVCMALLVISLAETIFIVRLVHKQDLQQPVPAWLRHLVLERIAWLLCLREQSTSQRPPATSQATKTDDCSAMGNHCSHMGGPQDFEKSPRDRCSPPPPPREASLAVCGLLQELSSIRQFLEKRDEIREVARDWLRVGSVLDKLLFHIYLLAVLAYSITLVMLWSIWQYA

[5] = target: T2, Alpha-1D adrenergic receptor (Homo sapiens) (UniProt P25100); assay: Inhibition of Adrenergic alpha1D at 10 µM in the Eurofins-Panlabs radioligand binding assay (Eurofins_assay_203400); conditions: Compound concentration 10.0 uM
T2 sequence (whole entry): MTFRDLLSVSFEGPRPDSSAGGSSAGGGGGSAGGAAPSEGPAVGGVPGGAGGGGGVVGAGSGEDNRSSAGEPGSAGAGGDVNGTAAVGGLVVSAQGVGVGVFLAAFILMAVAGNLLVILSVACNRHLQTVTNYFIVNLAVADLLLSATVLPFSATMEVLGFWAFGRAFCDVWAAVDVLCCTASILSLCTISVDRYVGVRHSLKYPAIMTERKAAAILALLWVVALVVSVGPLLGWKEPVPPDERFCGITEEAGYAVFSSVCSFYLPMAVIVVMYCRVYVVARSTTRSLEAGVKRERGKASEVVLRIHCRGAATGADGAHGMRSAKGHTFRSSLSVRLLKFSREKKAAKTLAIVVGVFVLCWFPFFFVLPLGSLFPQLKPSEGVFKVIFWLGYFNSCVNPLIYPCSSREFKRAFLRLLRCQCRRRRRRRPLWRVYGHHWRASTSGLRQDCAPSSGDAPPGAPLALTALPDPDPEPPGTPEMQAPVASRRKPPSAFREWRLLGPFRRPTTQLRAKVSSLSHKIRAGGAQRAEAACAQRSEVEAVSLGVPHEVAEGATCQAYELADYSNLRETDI

[6] = target: GABA-A receptor; anion channel (Rattus norvegicus) (UniProt O09028+P15431+P18506+P18508+P19969+P20236+P23574+P23576+P28471+P28473+P30191+P62813+P63079+P63138+Q91ZM7+Q9ES14); conditions: Compound concentration 10.0 uM
[7] = target: Mitogen-activated protein kinase 3 (Homo sapiens) (UniProt P27361); assay: Inhibition of Protein Serine/Threonine Kinase, MAPK3 (ERK1) at 10 µM in the Eurofins-Panlabs enzyme assay (Eurofins_assay_171000); conditions: Compound concentration 10.0 uM
[8] = target: Receptor tyrosine-protein kinase erbB-2 (Homo sapiens) (UniProt P04626); assay: Inhibition of Protein Tyrosine Kinase, ERBB2 (HER2) at 10 µM in the Eurofins-Panlabs enzyme assay (Eurofins_assay_174020); set-up: substrate with concentration; conditions: Compound concentration 10.0 uM
[9] = target: Epidermal growth factor receptor (Homo sapiens) (UniProt P00533); assay: Protein Tyrosine Kinase, EGF Receptor Eurofins-Panlabs enzyme assay; set-up: substrate with concentration; conditions: Compound concentration 10.0 uM
[10] = target: 5-hydroxytryptamine receptor 6 (Homo sapiens) (UniProt P50406); assay: Inhibition of Serotonin (5-Hydroxytryptamine) 5-HT6 at 10 µM in the Eurofins-Panlabs radioligand binding assay (Eurofins_assay_272200); conditions: Compound concentration 10.0 uM
[11] = target: T3, Alpha-2C adrenergic receptor (Homo sapiens) (UniProt P18825); assay: Adrenergic alpha2C Eurofins-Panlabs radioligand binding assay; set-up: ligand concentration 1 nM, non-specific ligand with concentration 10 µM WB-4101, incubation time 60 min, incubation temperature 25 °C; conditions: Compound concentration 10.0 uM
T3 sequence (whole entry): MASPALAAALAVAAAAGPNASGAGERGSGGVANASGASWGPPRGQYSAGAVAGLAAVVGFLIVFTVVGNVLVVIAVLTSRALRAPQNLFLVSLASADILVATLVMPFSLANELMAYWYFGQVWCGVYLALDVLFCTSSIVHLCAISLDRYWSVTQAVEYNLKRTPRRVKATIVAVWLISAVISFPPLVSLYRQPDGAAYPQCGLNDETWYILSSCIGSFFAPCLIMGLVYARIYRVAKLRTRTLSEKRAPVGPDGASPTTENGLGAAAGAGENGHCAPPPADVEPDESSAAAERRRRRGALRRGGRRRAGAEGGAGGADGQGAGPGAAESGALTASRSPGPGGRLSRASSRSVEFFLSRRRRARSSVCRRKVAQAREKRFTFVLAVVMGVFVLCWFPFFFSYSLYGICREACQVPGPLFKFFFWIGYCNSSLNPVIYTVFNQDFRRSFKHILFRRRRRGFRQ

[12] = target: Matrix metalloproteinase-9 (Homo sapiens) (UniProt P14780); assay: Inhibition of Peptidase, Matrix Metalloproteinase-9 (MMP-9) at 10 µM in the Eurofins-Panlabs enzyme assay (Eurofins_assay_114910); set-up: substrate with concentration; conditions: Compound concentration 10.0 uM
Bacteria = assay: Beta-Lactamase Eurofins-Panlabs enzyme assay; set-up: substrate with concentration; conditions: Compound concentration 10.0 uM
[13] = target: Histamine H1 receptor (Homo sapiens) (UniProt P35367); conditions: Compound concentration 10.0 uM
CYP2C19 = CYP2C19 (Homo sapiens, UniProt P33261); assay: CYP450, 2C19 Eurofins-Panlabs enzyme assay; conditions: compound concentration 10 uM
[14] = target: 5-hydroxytryptamine receptor 5A (Homo sapiens) (UniProt P47898); conditions: Compound concentration 10.0 uM
Cannabinoid receptor 1 = Cannabinoid receptor 1 (Homo sapiens, UniProt P21554); assay: Inhibition of Cannabinoid CB1 at compound concentration of 10.0 uM in the Eurofins-Panlabs radioligand binding assay (Eurofins_assay_217030); set-up: ligand concentration 2 nM, non-specific ligand with concentration 10 uM R(+)-WIN-55,212-2, incubation time 90 min, incubation temperature 37 C
[15] = target: Histamine H2 receptor (Homo sapiens) (UniProt P25021); conditions: Compound concentration 10.0 uM
Sequence of Histamine H2 receptor (Homo sapiens) (P25021 whole entry): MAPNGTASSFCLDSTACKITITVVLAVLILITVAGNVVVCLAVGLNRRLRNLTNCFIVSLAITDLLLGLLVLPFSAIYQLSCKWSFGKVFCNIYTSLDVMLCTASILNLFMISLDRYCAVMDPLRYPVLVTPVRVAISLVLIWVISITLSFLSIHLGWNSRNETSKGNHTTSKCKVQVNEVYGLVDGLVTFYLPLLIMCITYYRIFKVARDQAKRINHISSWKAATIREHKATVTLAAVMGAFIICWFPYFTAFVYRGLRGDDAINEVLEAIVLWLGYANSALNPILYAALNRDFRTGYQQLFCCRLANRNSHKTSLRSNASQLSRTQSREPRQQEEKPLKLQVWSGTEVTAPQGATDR

Sequence of 5-hydroxytryptamine receptor 5A (Homo sapiens) (P47898 whole entry): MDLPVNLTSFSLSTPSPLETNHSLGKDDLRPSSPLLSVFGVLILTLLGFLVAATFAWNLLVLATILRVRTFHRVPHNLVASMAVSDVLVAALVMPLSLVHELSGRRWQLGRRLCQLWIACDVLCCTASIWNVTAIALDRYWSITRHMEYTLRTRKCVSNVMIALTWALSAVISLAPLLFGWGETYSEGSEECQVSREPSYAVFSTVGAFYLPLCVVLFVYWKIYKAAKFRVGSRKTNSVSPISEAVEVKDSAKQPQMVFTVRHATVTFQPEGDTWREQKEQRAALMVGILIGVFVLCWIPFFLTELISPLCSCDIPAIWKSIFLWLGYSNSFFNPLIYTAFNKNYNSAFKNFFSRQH
Sequence of Histamine H1 receptor (Homo sapiens) (P35367 whole entry): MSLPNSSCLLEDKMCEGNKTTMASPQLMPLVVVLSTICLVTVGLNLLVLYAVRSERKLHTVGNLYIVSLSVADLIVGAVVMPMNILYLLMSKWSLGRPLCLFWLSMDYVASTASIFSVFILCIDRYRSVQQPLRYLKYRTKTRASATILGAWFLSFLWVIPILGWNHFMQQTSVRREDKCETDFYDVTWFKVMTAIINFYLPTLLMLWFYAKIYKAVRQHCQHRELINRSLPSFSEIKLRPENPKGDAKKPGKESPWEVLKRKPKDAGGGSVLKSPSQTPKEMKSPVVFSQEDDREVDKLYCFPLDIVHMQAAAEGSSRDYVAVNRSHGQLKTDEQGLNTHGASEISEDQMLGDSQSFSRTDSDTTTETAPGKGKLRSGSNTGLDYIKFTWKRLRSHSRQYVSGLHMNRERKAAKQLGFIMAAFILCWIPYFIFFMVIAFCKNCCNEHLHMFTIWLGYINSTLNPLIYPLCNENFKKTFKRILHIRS
Sequence of Caspase-1 (Homo sapiens) (P29466 120-297 limits assumed): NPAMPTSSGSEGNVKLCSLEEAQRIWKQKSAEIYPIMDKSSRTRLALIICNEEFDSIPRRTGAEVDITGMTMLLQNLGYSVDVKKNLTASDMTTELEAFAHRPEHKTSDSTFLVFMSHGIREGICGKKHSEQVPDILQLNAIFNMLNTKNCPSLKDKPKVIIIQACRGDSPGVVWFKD
Sequence of Caspase-1 (Homo sapiens) (P29466 317-404 limits assumed): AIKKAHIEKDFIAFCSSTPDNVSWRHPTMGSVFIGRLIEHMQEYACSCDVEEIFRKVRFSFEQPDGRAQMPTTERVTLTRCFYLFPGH
Sequence of CYP2C19 (P33261 whole entry): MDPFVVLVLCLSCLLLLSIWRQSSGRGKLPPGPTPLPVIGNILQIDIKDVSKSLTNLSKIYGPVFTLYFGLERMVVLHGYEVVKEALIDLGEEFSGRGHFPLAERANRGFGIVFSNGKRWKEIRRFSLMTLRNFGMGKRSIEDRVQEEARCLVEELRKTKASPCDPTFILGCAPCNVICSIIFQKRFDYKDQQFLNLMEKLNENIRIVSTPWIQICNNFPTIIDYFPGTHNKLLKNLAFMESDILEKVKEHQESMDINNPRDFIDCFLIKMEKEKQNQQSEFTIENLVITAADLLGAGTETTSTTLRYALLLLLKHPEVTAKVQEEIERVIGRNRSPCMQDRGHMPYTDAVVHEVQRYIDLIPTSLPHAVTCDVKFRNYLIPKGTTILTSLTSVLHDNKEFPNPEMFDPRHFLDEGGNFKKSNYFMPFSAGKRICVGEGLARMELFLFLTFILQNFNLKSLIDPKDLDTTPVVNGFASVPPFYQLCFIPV
Sequence of Mitogen-activated protein kinase 3 (Homo sapiens) (P27361 whole entry): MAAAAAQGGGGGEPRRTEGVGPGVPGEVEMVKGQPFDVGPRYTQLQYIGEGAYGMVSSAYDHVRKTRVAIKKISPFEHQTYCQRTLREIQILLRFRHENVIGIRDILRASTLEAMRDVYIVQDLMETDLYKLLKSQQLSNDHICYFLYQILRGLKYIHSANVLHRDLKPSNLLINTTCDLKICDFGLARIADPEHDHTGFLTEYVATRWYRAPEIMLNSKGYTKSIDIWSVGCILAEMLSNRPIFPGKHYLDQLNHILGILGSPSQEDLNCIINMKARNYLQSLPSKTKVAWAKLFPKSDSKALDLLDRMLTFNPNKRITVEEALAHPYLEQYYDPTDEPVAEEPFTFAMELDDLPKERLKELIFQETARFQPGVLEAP
Sequence of Estrogen receptor (Homo sapiens) (P03372 whole entry): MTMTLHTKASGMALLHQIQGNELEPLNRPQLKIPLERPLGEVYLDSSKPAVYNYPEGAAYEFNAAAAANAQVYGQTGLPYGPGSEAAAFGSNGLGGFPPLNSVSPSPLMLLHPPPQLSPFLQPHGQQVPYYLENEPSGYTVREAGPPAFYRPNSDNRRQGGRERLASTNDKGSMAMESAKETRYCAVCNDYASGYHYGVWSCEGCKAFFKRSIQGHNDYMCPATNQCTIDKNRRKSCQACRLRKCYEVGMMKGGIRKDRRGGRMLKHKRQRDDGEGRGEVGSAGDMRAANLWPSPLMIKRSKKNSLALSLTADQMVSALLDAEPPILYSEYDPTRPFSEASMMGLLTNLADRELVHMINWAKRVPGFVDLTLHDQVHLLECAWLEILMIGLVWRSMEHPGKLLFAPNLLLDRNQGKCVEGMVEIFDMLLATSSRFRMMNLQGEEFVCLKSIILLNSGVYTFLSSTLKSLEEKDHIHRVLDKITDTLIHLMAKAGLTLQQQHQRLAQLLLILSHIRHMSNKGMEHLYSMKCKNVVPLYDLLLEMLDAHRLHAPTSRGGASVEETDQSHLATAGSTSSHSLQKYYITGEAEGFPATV
Sequence of Receptor tyrosine-protein kinase erbB-2 (Homo sapiens) (P04626 whole entry): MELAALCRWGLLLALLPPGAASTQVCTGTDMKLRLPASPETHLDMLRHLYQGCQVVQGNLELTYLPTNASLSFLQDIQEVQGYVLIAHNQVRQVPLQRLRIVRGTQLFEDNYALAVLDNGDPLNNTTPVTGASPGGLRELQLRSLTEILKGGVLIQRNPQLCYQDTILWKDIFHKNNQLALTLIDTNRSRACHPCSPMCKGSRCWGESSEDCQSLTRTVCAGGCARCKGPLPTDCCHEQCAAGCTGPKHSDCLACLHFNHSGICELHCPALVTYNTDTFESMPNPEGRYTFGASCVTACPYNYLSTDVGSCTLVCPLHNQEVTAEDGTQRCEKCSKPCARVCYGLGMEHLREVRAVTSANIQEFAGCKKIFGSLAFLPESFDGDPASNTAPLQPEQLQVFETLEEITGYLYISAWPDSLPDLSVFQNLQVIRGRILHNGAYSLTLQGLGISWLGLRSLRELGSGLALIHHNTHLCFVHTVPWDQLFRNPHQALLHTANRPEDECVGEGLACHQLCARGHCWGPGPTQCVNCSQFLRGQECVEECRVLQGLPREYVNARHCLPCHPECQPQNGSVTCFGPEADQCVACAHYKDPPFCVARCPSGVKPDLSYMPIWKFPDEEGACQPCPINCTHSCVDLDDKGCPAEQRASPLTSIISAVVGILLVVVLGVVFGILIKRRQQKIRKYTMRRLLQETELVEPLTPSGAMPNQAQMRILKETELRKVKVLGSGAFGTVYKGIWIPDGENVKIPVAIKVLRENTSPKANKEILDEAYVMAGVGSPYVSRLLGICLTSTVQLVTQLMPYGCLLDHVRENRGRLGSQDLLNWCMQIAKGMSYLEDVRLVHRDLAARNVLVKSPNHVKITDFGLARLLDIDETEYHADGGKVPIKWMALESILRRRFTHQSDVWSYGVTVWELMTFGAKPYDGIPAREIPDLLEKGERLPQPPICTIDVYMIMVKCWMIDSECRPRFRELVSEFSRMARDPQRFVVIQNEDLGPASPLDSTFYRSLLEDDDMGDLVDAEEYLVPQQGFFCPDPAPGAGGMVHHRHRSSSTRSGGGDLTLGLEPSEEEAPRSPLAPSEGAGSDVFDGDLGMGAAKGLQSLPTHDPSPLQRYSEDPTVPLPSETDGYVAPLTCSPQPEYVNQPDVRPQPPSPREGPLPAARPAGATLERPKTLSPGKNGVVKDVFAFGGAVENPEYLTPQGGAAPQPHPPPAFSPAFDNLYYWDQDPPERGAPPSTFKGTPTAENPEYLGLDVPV
Sequence of Cannabinoid receptor 1 (P21554 whole entry): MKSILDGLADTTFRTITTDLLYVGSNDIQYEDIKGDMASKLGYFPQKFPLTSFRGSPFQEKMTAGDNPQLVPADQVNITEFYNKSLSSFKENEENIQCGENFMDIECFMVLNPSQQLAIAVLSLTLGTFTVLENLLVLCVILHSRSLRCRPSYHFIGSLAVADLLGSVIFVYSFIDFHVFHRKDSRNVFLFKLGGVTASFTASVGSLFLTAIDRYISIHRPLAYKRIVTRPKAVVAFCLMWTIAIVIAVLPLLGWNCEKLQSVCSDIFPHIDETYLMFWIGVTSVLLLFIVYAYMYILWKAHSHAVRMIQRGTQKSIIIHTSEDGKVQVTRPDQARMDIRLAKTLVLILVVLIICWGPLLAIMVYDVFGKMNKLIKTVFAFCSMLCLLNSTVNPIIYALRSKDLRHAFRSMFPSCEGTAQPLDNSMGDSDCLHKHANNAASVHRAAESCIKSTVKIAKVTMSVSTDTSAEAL

SMILES: O=C(NCc1ncc(C(F)(F)F)cc1Cl)c1ccc2c(c1)C1(CCS(=O)(=O)CC1)[C@H](C1CC1)N2S(=O)(=O)c1ccc(F)cc1 [BAY-784]
- inhibition [1]: 9%
- inhibition [2]: 9%
- inhibition (Caspase-1 (Homo sapiens)): 8%
- inhibition [3]: 21%
- inhibition [4]: 19%
- inhibition [5]: 18%
- inhibition [6]: -9.68%
- inhibition [7]: 87%
- inhibition [8]: 6%
- inhibition [9]: -3%
- inhibition [10]: 14%
- inhibition [11]: 3%
- inhibition [12]: 3%
- inhibition (Bacteria): -2%
- inhibition [13]: 9%
- inhibition at 10 µM (CYP2C19): 36% (not active)
- inhibition [14]: -8.25%
- Ki (Cannabinoid receptor 1): 2570 nM
- inhibition [15]: 1%
